Laboratory results: patent US10906938B2, “Cell epitopes and combination of cell epitopes for use in the immunotherapy of myeloma and other cancers” (Immatics Biotechnologies GmbH, priority 2015, dated 2021)

What was measured:
[1] = system: U266 cells; test: HLA class I ligand presentation upon carfilzomib treatment on U266 cells (LC-MS/MS); type: cell-based, human; set-up: key to modulation upon carfilzomib-treatment 24 #1 / modulation upon carfilzomib-treatment 24 #2 / modulation upon carfilzomib-treatment 24 #3 / modulation upon carfilzomib-treatment 48 #1 / modulation upon carfilzomib-treatment 48 #2 / modulation upon carfilzomib-treatment 48 #3: −1: significantly down-modulated; 0: not signifcant/not detected; 1: significantly up-modulated; conditions: U266 cells, vs mock-treated controls; for modulation upon carfilzomib-treatment 24 #1 / modulation upon carfilzomib-treatment 24 #2 / modulation upon carfilzomib-treatment 24 #3: 24 h after carfilzomib treatment (100 nM, 1 h); for modulation upon carfilzomib-treatment 24 #1 / modulation upon carfilzomib-treatment 48 #1: biological replicate #1; for modulation upon carfilzomib-treatment 24 #2 / modulation upon carfilzomib-treatment 48 #2: biological replicate #2; for modulation upon carfilzomib-treatment 24 #3 / modulation upon carfilzomib-treatment 48 #3: biological replicate #3; for modulation upon carfilzomib-treatment 48 #1 / modulation upon carfilzomib-treatment 48 #2 / modulation upon carfilzomib-treatment 48 #3: 48 h after carfilzomib treatment (100 nM, 1 h)
Experimental: (§1) HLA class I and II molecules were isolated using standard immunoaffinity purification as described using the pan-HLA class I specific mAb W6/32, the pan-HLA class II specific mAb T039 and the HLA-DR specific mAB L243 (produced in house).
(§2) HLA ligand extracts were analyzed in 5 technical replicates as described previously. In brief, peptide samples were separated by nanoflow HPLC (RSLCnano, ThermoFisher) using a 50 μm×25 cm PepMap RSLC column (Thermo Fisher) and a gradient ranging from 2.4 to 32.0% acetonitrile over the course of 90 min. Eluting peptides were analyzed in an online coupled LTQ Orbitrap XL mass spectrometer (Thermo Fisher) using a top 5 CID (collision induced dissociation) fragmentation method.
(§3) Data processing was performed as described previously. In brief, the Mascot search engine (Mascot 2.2.04; Matrix Science, London, UK) was implemented to search the human proteome as comprised in the Swiss-Prot database (20,279 reviewed protein sequences, September 2013) without enzymatic restriction. Potential mutated HLA ligands were searched implementing a database containing the human proteome concatenated with proteins containing single amino acid variants (SAVs) listed in the COSMIC database (http://cancer.sanger.ac.uk/cosmic/). Only recurrent SAVs described in 2 or more samples of hematological origin were included. Oxidized methionine was allowed as a dynamic modification. The false discovery rate was estimated using the Percolator algorithm and set to 5%. Peptide lengths were limited to 8-12 amino acids for HLA class I and 12-25 amino acids for HLA class II. Protein inference was disabled, allowing for multiple protein annotations of peptides. HLA annotation was performed using SYFPEITHI [46] or an extended in-house database. Experimental validation of peptide identifications and HLA annotations was performed by mass spectrometric and functional characterization of synthetic peptides for a subset of peptides.
(§4) The inventors quantitatively assessed HLA class I ligand presentation during proteasome inhibitor therapy. Observed was a considerable plasticity of the HLA class I ligandome after treatment with carfilzomib with 17.9±1.1% of MM.1S ligands and 11.2±0.7% of U266 ligands (mean of three biological replicates ±s.d.) showing significant modulation (fold-change ≥4, Po0.01 after Benjamini-Hochberg correction) at t24 h compared with mock-treated controls. Briefly, Cultured MCLs (MM.1S and U266) and primary myeloma samples were incubated with carfilzomib (100 nM, Kyprolis®, available, e.g., from Onyx Pharmaceuticals, Inc.) as an example for a proteasome inhibitor for a 1-h period, followed by three washes in PBS (Gibco) and recultured for additional 24 or 48 h. Controls were incubated with vehicle control (glucose 5%) for 1 h, followed by identical washing and incubation for 24 or 48 h. Experiments were conducted in three biological replicates where indicated.

[2] = system: MM.1S cells; test: HLA class I ligand presentation upon carfilzomib treatment on MM.1S cells (LC-MS/MS); type: cell-based, human; set-up: key to modulation upon carfilzomib-treatment 24 #1 / modulation upon carfilzomib-treatment 24 #2 / modulation upon carfilzomib-treatment 24 #3 / modulation upon carfilzomib-treatment 48 #1 / modulation upon carfilzomib-treatment 48 #2 / modulation upon carfilzomib-treatment 48 #3: −1: significantly down-modulated; 0: not signifcant/not detected; 1: significantly up-modulated; conditions: MM.1S cells, vs mock-treated controls; for modulation upon carfilzomib-treatment 24 #1 / modulation upon carfilzomib-treatment 24 #2 / modulation upon carfilzomib-treatment 24 #3: 24 h after carfilzomib treatment (100 nM, 1 h); for modulation upon carfilzomib-treatment 24 #1 / modulation upon carfilzomib-treatment 48 #1: biological replicate #1; for modulation upon carfilzomib-treatment 24 #2 / modulation upon carfilzomib-treatment 48 #2: biological replicate #2; for modulation upon carfilzomib-treatment 24 #3 / modulation upon carfilzomib-treatment 48 #3: biological replicate #3; for modulation upon carfilzomib-treatment 48 #1 / modulation upon carfilzomib-treatment 48 #2 / modulation upon carfilzomib-treatment 48 #3: 48 h after carfilzomib treatment (100 nM, 1 h)
Experimental: as §1, §2, §3, §4

Sequence	modulation upon carfilzomib-treatment 24 #1 [1]	modulation upon carfilzomib-treatment 24 #2 [1]	modulation upon carfilzomib-treatment 24 #3 [1]	modulation upon carfilzomib-treatment 48 #1 [1]	modulation upon carfilzomib-treatment 48 #2 [1]	modulation upon carfilzomib-treatment 48 #3 [1]	modulation upon carfilzomib-treatment 24 #1 [2]	modulation upon carfilzomib-treatment 24 #2 [2]	modulation upon carfilzomib-treatment 24 #3 [2]	modulation upon carfilzomib-treatment 48 #1 [2]	modulation upon carfilzomib-treatment 48 #2 [2]	modulation upon carfilzomib-treatment 48 #3 [2]
FVFPGELLL	1	1	0	0	0	0	0	0	0	0	0	0
RPKAQPTTL	0	0	0	0	0	0	0	0	1	0	0	0
FAYPAIRYL	0	0	0	1	0	1	0	0	0	0	0	0
KPRPPQGL	0	0	0	1	1	1	1	1	1	1	0	0
RPQLKGVVL	0	0	0	0	0	0	0	0	0	0	0	0
VPLTRVSGGAA	–	–	–	–	–	–	1	1	1	1	1	1
IEHPSMSVY	–	–	–	–	–	–	1	1	1	0	1	1
EYGHIPSF	–	–	–	–	–	–	1	1	0	0	0	0
SEFDFFERL	–	–	–	–	–	–	0	0	0	0	0	−1
